Target: T1, human PTP-1B (Homo sapiens, UniProt P18031)
T1 construct: The fusion protein, which lacks the carboxyl terminus 35 amino acid residues of PTP-1B; made in house; host or cells: Escherichia coli (pGEX system)
T1 sequence (P18031 1-400 limits assumed): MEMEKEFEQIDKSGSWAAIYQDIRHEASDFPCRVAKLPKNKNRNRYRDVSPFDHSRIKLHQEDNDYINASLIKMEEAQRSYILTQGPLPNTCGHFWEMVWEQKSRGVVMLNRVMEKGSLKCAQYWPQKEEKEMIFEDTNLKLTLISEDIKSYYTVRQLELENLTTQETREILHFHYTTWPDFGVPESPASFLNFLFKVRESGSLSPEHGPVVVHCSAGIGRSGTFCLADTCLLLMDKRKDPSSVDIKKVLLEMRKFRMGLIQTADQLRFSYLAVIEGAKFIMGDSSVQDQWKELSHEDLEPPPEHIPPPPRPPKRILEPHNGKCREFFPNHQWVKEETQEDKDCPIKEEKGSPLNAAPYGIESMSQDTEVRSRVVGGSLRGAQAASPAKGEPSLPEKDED
Assay: Assay for PTP-1B phosphatase activity (malachite green, phosphorylated insulin receptor peptide)
Type: biochemical
Conditions: truncated human PTP-1B GST fusion protein, phosphorylated kinase domain of insulin receptor-1 as substrate, absorbance at 650 nm, read-out: IC50 of inhibition of PTP-1B phosphatase activity
Experimental: PTP-1B phosphatase activity was measured as its ability to dephosphorylate a phosphorylated insulin receptor. In particular, a phosphorylated peptide derived from insulin receptor was used for the assay. The dephosphorylation reaction was monitored using a malachite green assay (Lanzetta et al., Anal Biochem. 1979, 100: 95-7), which measures the release of inorganic phosphate from the activated insulin receptor or the phosphorylated peptide derived from insulin receptor. A PTP-1B inhibitor decreases the yield of inorganic phosphate when it is added to the assay.
A substantially purified, soluble, truncated human PTP-1B GST fusion protein was used as the source of PTP-1B enzyme. […]
PTP-1B GST fusion protein (10 ng in 48 μl of assay buffer) was mixed with the phosphorylated kinase domain of insulin receptor-1 (70 μM in 201 μl of assay buffer) and the test compound (at desired concentration in 2 μl DMSO). […] After additional 30 minutes incubation at room temperature, the amount of inorganic phosphate released from the phosphorylated kinase domain of insulin receptor-1 in the reaction mixture was measured by the absorbance at 650 nm. […]

IC50: 0.91 µM
Compound: Cc1ccc(CC/N=C2\N/C(=N\CCc3ccc(C)cc3)c3cnccc32)cc1 [Formula II, 1,3-Bis-(2-p-tolyl-ethylimino)-2,3-dihydro-1H-pyrrolo[3,4-c]pyridine]

— patent US20050159442A1, “Protein tyrosine phosphatase 1B (PTP-1B) inhibitors and methods of using the same” (priority 2003, published 2005)
